Each block holds one molecule with its values, some of them ahead of it.
What was measured:
[1] = 4EP to 4EPS conversion by cytosolic fractions from tissues of colonized mice; type: in vitro ADME, mouse; conditions: colon and liver cytosolic fractions of colonized mice, FIG. 11E
Experimental: 4EP to 4EPS conversion was measured by cytosolic fractions from various tissues of colonized mice (FIG. 11E).

wild-type mice = assay: Open field exploration and pre-pulse inhibition assays, wild-type mice injected with 4EPS (Example 1); type: in vivo, mouse; conditions: 30 mg/kg 4EPS potassium salt i.p. daily from 3 to 6 weeks of age vs saline, n=10/group
Experimental: To measure effects of 4EPS on wild-type mice, the wild-type mice were injected intraperitoneally (i.p.) with saline or 30 mg/kg 4EPS potassium salt daily from 3 to 6 weeks of age. Anxiety-like behavior based on center duration (See FIG. 1B) and locomotor behavior (See […]) were measured in the open field exploration assay. n=10/group. Furthermore, the potentiated startle reflex was measured in the pre-pulse inhibition (PPI) assay, and measurements were taken of startle (Vmax) (FIG. 1C) and PPI % (FIG. 1D). n=10/group.

Wildtype mice [2] = assay: Light dark box, mice injected with 4EPS; type: in vivo, mouse; conditions: 30 mg/kg 4EPS potassium salt i.p. daily, 3 to 6 weeks of age, vs saline
Experimental: (§1) Wildtype mice were injected intraperitoneally (i.p.) with saline or 30 mg/kg 4EPS potassium salt daily from 3 to 6 weeks of age and tested for anxiety in the elevated plus maze (FIG. 4A-C), light dark box (FIG. 4D-F), and open field arena (FIG. 4G-I) assays.

Wildtype mice [3] = assay: Elevated plus maze, mice injected with 4EPS; type: in vivo, mouse; conditions: 30 mg/kg 4EPS potassium salt i.p. daily, 3 to 6 weeks of age, vs saline
Experimental: as §1

Wildtype mice [4] = assay: Open field arena, mice injected with 4EPS; type: in vivo, mouse; conditions: 30 mg/kg 4EPS potassium salt i.p. daily, 3 to 6 weeks of age, vs saline
Experimental: as §1

[5] = biological target: Sult1A1 (sulfotransferase family 1A member 1) (Homo sapiens, UniProt P50225); assay: R&D SYSTEMS sulfotransferase assay, Sult1A1 modification of 4EP to 4EPS; type: biochemical; conditions: in vitro, FIG. 11C
Experimental: Using R&D SYSTEMS Universal Sulfotransferase Assay Kit™, sulfation of 4-ethylphenol (4EP) or para-cresol (PC) was determined colorimetrically (FIG. 11A). Samples from the assay were pooled and analyzed by liquid chromotography mass spectrometry (LCMS) for the confirmation that 4EPS and PCS are present (FIG. 11B).
An R&D SYSTEMS assay was used to determine whether quercetin and curcumin can inhibit Sult1A1 (sulfotransferase family 1A member 1, an enzyme that catalyzes sulfate conjugation) modification of 4EP to 4EPS (FIG. 11C). […] Accordingly, it is contemplated that quercetin and curcumin in accordance with some embodiments herein can inhibit the production of 4EPS in a subject in need thereof.

Sequence of Sult1A1 (sulfotransferase family 1A member 1) (P50225 whole entry, species assumed): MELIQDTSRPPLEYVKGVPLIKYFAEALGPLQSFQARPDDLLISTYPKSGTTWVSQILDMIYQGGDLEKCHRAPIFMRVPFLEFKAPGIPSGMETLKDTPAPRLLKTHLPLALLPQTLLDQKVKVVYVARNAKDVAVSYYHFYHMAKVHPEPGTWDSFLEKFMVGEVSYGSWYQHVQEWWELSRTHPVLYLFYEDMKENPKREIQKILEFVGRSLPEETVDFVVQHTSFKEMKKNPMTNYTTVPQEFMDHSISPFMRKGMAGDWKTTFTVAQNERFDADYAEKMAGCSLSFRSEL

conversion of 4EP to 4EPS [1]: Substantial conversion
SMILES: CCc1ccc(O)cc1 [4EP, 4-ethylphenol]

SMILES: CCc1ccc(OS(=O)(=O)[O-])cc1.[K+] [4EPS, 4-ethylphenyl sulfate]
anxiety behaviors (open field center duration, startle, PPI) (wild-type mice): significantly increased anxiety behaviors | frequency in the light (light dark box) (Wildtype mice [2]): decreased | total duration in the light (light dark box) (Wildtype mice [2]): decreased | duration in the open (elevated plus maze) (Wildtype mice [3]): decreased | total terminus duration (elevated plus maze) (Wildtype mice [3]): decreased | distance moved (open field arena) (Wildtype mice [4]): comparable to saline-injected mice | total duration in center (open field arena) (Wildtype mice [4]): decreased

inhibition of sulfation of 4EP [5]: inhibit
SMILES: COc1cc(/C=C/C(=O)CC(=O)/C=C/c2ccc(O)c(OC)c2)ccc1O [curcumin]

SMILES: O=c1c(O)c(-c2ccc(O)c(O)c2)oc2cc(O)cc(O)c12 [quercetin]
inhibition of sulfation of 4EP [5]: inhibit
